# Values of other authors, collected in patent publication US7901914B2, “Microbiological method of the biosynthesis of natural blue-violet colorants violacein and deoxyviolacein and the utilization thereof” (Stiftung Alfred-Wegener-Institut fuer Polar- und …, priority 2000, dated 2011).
compound,measurement,setting,value
"O=C1NC(c2c[nH]c3ccc(O)cc23)=C/C1=C1\C(=O)Nc2ccccc21 [violacein, 3-[1,2-dihydro-5-(5-hydroxy-1H-indole-3-yl)-2-oxo-3-H-pyrrole-3-ylidene]-1,3-dihydro-2H-indole-2-on]",solubility in organic solvents,"in acetone, ethanol and dioxane",soluble
same,solubility in water,in water,practically insoluble
